Results taken from patent US20220378801A1, “NOVEL COMPOUNDS” (AC Immune SA, priority 2019, published 2022).

What was measured:
Assay type in all cases: cell-based
NLRP3 inflammasome [1] = target: T1, NLRP3 inflammasome (Homo sapiens, UniProt Q96P20); test: NLRP3 inflammasome activation assay, IL-1 beta release, HMDM cells, MSU stimulation; details: LPS-primed primary human monocyte-derived macrophages; MSU 150 μg/ml 3 h; IL-1β by AlphaLISA
Protocol: (§1) The following assays can be used to determine the inhibitory activity of test compounds on the NLRP3 inflammasome using common stimuli nigericin (Invivogen) or monosodium urate crystals (MSU)(Invivogen).
(§2) Human monocyte-like cells are cultured in RPM11640 Glutamax medium supplemented with 10% heat inactivated FCS and 50 U/ml penicillin-streptomycin (Life Technologies). HMDM (Human Monocyte Derived Macrophage) are isolated from human blood with leucosep tubes and classical monocyte isolation kit from Miltenyi based on negative selection.
(§3) Primary human monocyte-derived macrophages (HMDM) are seeded at 30000 per well in a 96 well plate and differentiated into macrophages with 10 ng/ml Human M-CSF (Macrophage Colony Stimulating Factor). At DIV 8 (Day in vitro) medium containing 10 ng/ml LPS is added. After 3 h of LPS priming, concentrations of test compound in the range from […] are added 30 min prior to NLRP3 inflammasome stimulation with Nigericin 2.5 μM or MSU 150 μg/ml for 3 h.
(§4) For IL-1β quantification, supernatants are analyzed using AlphaLISA kits according to the manufacturer's instructions (Perkin Elmer AlphaLISA AL220F).
(§5) IC50 (concentration corresponding to 50% inhibition) were determined using GraphPad Prism 8.

NLRP3 inflammasome [2] = target: T1, NLRP3 inflammasome; test: NLRP3 inflammasome activation assay, IL-1 beta release, HMDM cells, Nigericin stimulation; details: LPS-primed primary human monocyte-derived macrophages; Nigericin 2.5 μM 3 h; IL-1β by AlphaLISA
Protocol: as §1, §2, §3, §4, §5

NLRP3 inflammasome [3] = target: T1, NLRP3 inflammasome; test: NLRP3 inflammasome activation assay, IL-1 beta release, human monocyte-like cells, MSU stimulation; parameters: endogenous in cells; details: PMA-differentiated, LPS-primed human monocyte-like cells; MSU 150 μg/ml 3 h; IL-1β by AlphaLISA
Protocol: as §1, §2
(§6) NLRP3 inflammasome activation assays Human monocyte-like cells are seeded at 75000 per well in a 96 well plate and differentiated overnight into macrophages with 10 ng/ml PMA (Phorbol Myristate Acetate). The following day, medium containing 10 ng/ml LPS (lipopolysaccharide) is added. After 3 h of LPS priming, concentrations of test compound in the range from 100 μM to 6 nM are added 30 min prior to NLRP3 inflammasome stimulation with Nigericin 3.75 μM or MSU 150 μg/ml for 3 h.
as §4, §5

NLRP3 inflammasome [4] = target: T1, NLRP3 inflammasome; test: NLRP3 inflammasome activation assay, IL-1 beta release, human monocyte-like cells, Nigericin stimulation; parameters: endogenous in cells; details: PMA-differentiated, LPS-primed human monocyte-like cells; Nigericin 3.75 μM 3 h; IL-1β by AlphaLISA
Protocol: as §1, §2, §6, §4, §5

T1 sequence (Q96P20 whole entry): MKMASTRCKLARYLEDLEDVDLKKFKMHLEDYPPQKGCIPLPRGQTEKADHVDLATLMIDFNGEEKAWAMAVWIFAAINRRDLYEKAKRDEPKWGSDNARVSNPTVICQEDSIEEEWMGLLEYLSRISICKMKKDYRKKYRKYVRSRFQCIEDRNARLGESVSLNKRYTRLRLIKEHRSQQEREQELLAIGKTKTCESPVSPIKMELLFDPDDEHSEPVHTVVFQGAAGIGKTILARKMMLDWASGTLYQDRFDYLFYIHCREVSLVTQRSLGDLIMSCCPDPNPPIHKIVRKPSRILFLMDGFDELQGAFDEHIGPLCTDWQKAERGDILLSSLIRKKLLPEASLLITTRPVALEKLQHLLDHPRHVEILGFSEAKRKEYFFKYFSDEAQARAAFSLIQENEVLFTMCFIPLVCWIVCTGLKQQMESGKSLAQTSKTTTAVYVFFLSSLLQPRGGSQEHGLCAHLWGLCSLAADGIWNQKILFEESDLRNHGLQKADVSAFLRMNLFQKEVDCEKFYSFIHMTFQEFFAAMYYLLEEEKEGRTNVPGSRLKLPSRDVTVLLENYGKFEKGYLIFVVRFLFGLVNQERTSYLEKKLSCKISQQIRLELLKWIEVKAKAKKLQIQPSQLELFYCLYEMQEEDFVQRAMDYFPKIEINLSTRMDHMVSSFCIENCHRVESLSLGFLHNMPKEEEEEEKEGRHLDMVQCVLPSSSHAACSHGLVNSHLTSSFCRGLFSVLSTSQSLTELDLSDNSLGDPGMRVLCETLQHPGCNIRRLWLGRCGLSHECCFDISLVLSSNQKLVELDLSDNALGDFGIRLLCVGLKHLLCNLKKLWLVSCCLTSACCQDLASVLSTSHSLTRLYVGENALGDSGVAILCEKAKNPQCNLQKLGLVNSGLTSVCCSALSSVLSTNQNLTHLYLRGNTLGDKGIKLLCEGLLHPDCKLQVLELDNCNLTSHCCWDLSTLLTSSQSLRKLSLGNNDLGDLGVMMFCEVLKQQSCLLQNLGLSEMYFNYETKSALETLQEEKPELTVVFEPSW

| SMILES | IC50 (NLRP3 inflammasome [1]) [µM] | IC50 (NLRP3 inflammasome [2]) [µM] | IC50 (NLRP3 inflammasome [3]) [µM] | IC50 (NLRP3 inflammasome [4]) [µM] |
| --- | --- | --- | --- | --- |
| COc1cc(-c2cccc(C(C)C)c2NC(=O)NS2(=O)=NC(=O)c3ccc(C(C)(C)O)cc32)ccn1 (stereo not shown) [Example 31] | 1 to 10 | 1 to 10 | < 1 | < 1 |
| O=C(N=S1(=O)NC(=O)c2ccccc21)Nc1c2c(cc3c1CCC3)CCC2 (racemic) [Example 1] | < 1 | 1 to 10 | < 1 | 1 to 10 |
| O=C(Nc1c2c(cc3c1CCC3)CCC2)NS1(=O)=NC(=O)c2sccc21 (single isomer, unassigned) [Example 36] | < 1 | < 1 | < 1 | < 1 |
| O=C(N=S1(=O)NC(=O)c2ccccc21)Nc1c2c(cc3c1CCC3)CCC2 (single isomer, unassigned) [Example 1b] | < 1 | 1 to 10 | < 1 | 1 to 10 |
| O=C(Nc1c2c(cc3c1CCC3)CCC2)NS1(=O)=NC(=O)c2c(Cl)cccc21 (stereo not shown) [Example 11] | 1 to 10 | 1 to 10 | < 1 | 1 to 10 |
| O=C(Nc1c2c(cc3c1CCC3)CCC2)NS1(=O)=NC(=O)c2cc(F)ccc21 (single isomer, unassigned) [Example 62] | < 1 | 1 to 10 | < 1 | < 1 |
| O=C(Nc1c2c(cc3c1CCC3)CCC2)NS1(=O)=NC(=O)c2ccccc2C1 (single isomer, unassigned) [Example 34] | < 1 | 1 to 10 | < 1 | < 1 |
| O=C(Nc1c2c(c(F)c3c1CCC3)CCC2)NS1(=O)=NC(=O)c2ccccc21 (single isomer, unassigned) [Example 37] | < 1 | 1 to 10 | < 1 | < 1 |
| O=C(Nc1c2c(c(F)c3c1CCC3)CCC2)NS1(=O)=NC(=O)c2ccccc21 (stereo not shown) [Example 5] | < 1 | 1 to 10 | < 1 | 1 to 10 |

The remaining lines, values ahead:

| IC50 (NLRP3 inflammasome [1]) [µM] | IC50 (NLRP3 inflammasome [2]) [µM] | IC50 (NLRP3 inflammasome [3]) [µM] | IC50 (NLRP3 inflammasome [4]) [µM] | SMILES |
| --- | --- | --- | --- | --- |
| < 1 | < 1 | < 1 | < 1 | CC(C)(O)c1ccc2c(c1)S(=O)(=NC(=O)Nc1c3c(cc4c1CCC4)CCC3)NC2=O (single isomer, unassigned) [Example 41] |
| < 1 | < 1 | < 1 | < 1 | COc1ccc2c(c1)S(=O)(NC(=O)Nc1c3c(cc4c1CCC4)CCC3)=NC2=O (single isomer, unassigned) [Example 48] |
| < 1 | 1 to 10 | < 1 | 1 to 10 | O=C(Nc1c2c(cc3c1CCC3)CCC2)NS1(=O)=NC(=O)c2c(Cl)cccc21 (single isomer, unassigned) [Example 42] |
| < 1 | < 1 | < 1 | < 1 | CC(C)(O)c1ccc2c(c1)S(=O)(=NC(=O)Nc1c3c(cc4c1CCC4)CCC3)NC2=O (stereo not shown) [Example 30, 1-(1,2,3,5,6,7-hexahydro-s-indacen-4-yl)-3-(6-(2-hydroxypropan-2-yl)-1-oxido-3-oxo-3H-1,4-benzo[d]isothiazol-1-yl)urea] |
